In paper PMC7912796, “Design, Synthesis, Anticancer Activity, and Solid Lipid Nanoparticle Formulation of Indole- and Benzimidazole-Based Compounds as Pro-Apoptotic Agents Targeting Bcl-2 Protein” (Pharmaceuticals, 2021):

Experiments:
[1] = system: A549/lung adenocarcinoma cells; experiment: MTT-cell proliferation assay; format: cell-based, human; conditions: Homo sapiens, A549, 48 h drug exposure, mean of three experiments ± SEM
Description: (§1) The potential anti-cancer activity of all fourteen final synthesized compounds was investigated through MTT cytotoxic assay against two different human solid cancerous cell lines; A549/lung and MDA-MB-231/breast adenocarcinoma. The adopted cell-proliferation assay assessed % cell viability in relation to the reducing activity of cellular NADPH-dependent cellular oxidoreductases on tetrazolium dye, MTT [2,5-diphenyl-3-(4,5-dimethylthiazol-2-yl)tetrazolium bromide salt], for furnishing an easily quantified insoluble chromogenic formazan. For each drug concentration, 0.1, 1, 10, and 100 μM, the % cell-viability was estimated relative to negative control following a complete 48 h of drug treatment. Both 5-fluorouracil (5-FU) and doxorubicin (DOX) were set as positive index comparators. Moreover, the safety profile of the synthesized compounds was further investigated by examining their in-vitro cytotoxicity on non-cancerous cell line; MDCK/kidney cells.
(§2) Evaluating the cytotoxicity of tested compounds on two cancer cell lines (A549/lung and MDA-MB-231/breast adenocarcinoma) and non-cancerous (MDCK/kidney cells) was performed while adopting the formerly described method with small alterations. Cancer cell lines were propagated within Dulbecco’s Modified Eagle Medium-High Glucose (Cat.#: P0103; DMEM_High Glucose with Na.Pyruvate and stable Glutamine, Biowest^TM, Nuaillé, France), while MDA-MB-231 cells were propagated within RPMI-1640 L-Glutamine medium (Cat.#:12-604F; Lonza-Verviers SPRL^TM, Verviers, Belgium). The culturing media were supplemented via 1% antibiotic-antimycotic 100X (Cat.#: L0010; Biowest^TM, Nuaillé, France) and 10% fetal bovine serum (FBS) (Cat.#: EU-000-H; Seralab^TM, West Sussex, UK). Cells were seeded as triplicates within 96-well plate, at 1 × 10^4 cells per well density, after being counted and viability checked using the trypan blue staining solution (Cat.# ab233465; Abcam^TM, Cambridge, MA, USA). Seeded cells were permitted to adhere for 24 h under 5% CO2 and at 37 °C incubating conditions. The assigned compounds were dissolved in 500 µL DMSO affording the stock solution (100 mM) being ready for more diluting within the whole medium to obtain the compound’s final concentrations; 0.1, 1, 10, 100 µM for cell treatments. […] Following 24 h compound-cell treatment, the medium was substituted by fresh one and cells were permitted to develop for 48 h. At four hours prior the end of incubation, 10 μL MTT Sigma-Aldrich^TM (5 mg/mL in PBS 1X without magnesium and calcium; Cat.# 17-516F, Lonza-Verviers^TM, Basel, Switzerland) were added to all wells. Following the complete 48 h incubation, 100 μL DMSO was all added to all wells where they were subsequently centrifuged at 4000 rpm for 5 min allowing the formazan crystals of formazan to precipitate. Color was established and intensities were recorded at 490 nm using Synergy-Neo2® Hybrid MultiMode Plate Reader (BioTek^TM, Winooski, VT, USA), while subtracting the multi-well plates background absorbance at 690 nm. Percentage cell viability was estimated using the subsequent formula: % cell-viability = (average absorbance of treated wells/average absorbance of controls) × 100.

[2] = system: MDA-MB-231/breast cancer cells; experiment: MTT-cell proliferation assay; format: cell-based, human; conditions: 48 h drug exposure, mean of three experiments ± SEM
Description: as §1, §2

[3] = system: human cytochrome c protein; experiment: ELISA protein level; format: cell-based; conditions: 13 μM, 48 h, MDA-MB-231; control 0.295 ng/mL
Description: Dissection of the compound’s proapoptotic activity was proceeded through gene expression analysis for key genes, controlling apoptosis pathway, as well as protein level determination. Following 8b treatment for 48 h, alterations within MDA-MB-231/breast cancer cell expression of Bcl-2, Bax, caspase-3, -8, and -9 genes, as well as cytochrome c and class-III β-tubulin proteins levels were determined using real-time polymerase chain reaction (RT-PCR) or ELISA technique, respectively. Typically, Bcl-2, Bax, caspases, and cytochrome c proteins contributes within the regulation of apoptotic signaling. Acting as apoptotic activator (Bax) or inhibitor (Bcl-2), the Bcl-2 family proteins play their significant role in apoptosis. The caspases family are cysteine proteases being classified as either executioners; caspase-3, -6, or -7 or initiators; caspase-8 and -9 [36]. Regrading caspase-8, its activation is proceeded through extrinsic death-receptor dependent apoptotic pathway, while, caspase-9 activation is within the event of intrinsic mitochondrial cytochrome c leakage. Additionally, participation of activated caspase-3 is to be essential for caspase-8 activation. […]
Quantikine® Colorimetric Sandwich-ELISA Kit (Cat.#: DCTC0; R&D Systems, Minneapolis, MN, USA) was used for quantitating the targeted human cytochrome c protein through immunoassay protocol. […]

[4] = system: MDA-MB-231/breast cancer cells; experiment: SRB cytotoxicity assay; format: cell-based; conditions: Homo sapiens; MDA-MB-231, 72 h exposure
Description: MDA-MB-231: Breast Cancer cell line was obtained from Nawah^TM Scientific Inc., (Cairo, Egypt). Cells were maintained within DMEM provided by 100 units/mL of penicillin, […], and 10% of heat-inactivated FBS within 5% (v/v) CO2 humidified atmosphere (37 °C). The validity of cell line was evaluated adopting the previously reported approach. Briefly, an accurate volume (100 μL) of cell line suspension (5 × 10^3 cells) was placed in 96-well plates and incubated for 24 h within complete media. Cell line suspensions were then treated with another 100 μL media spiked with various drug concentrations (0.01, 0.1, 1, 10, 100 μM/mL) and kept for 72 h. Then the media were replaced with 150 μL of 10% trichloroacetic acid (TCA) for fixing cells through subsequent 1 h incubation at 4 °C [74]. Following incubation, TCA was removed, and cells were washed via distilled water 5 times. Aliquots of 70 μL SRB solution (0.4% w/v; Cat.# S1402; Sigma-Aldrich^TM, Taufkirchen, Germany) were added and cell were then incubated in dark for 10 min at 25 °C. Plates were subjected to triplicate washing via 1% acetic acid and then permitted to be air-dried overnight. Protein-bound SRB stain was extracted by addition of tris base (150 μL, 10 mM) and the absorbance was measured at 540 nm using FLUOstar-Omega® microplate reader (BMG-Labtech^TM GmbH, Ortenberg, Germany).

IC50 [1]: 23.1 ± 1.45 µM
IC50 [2]: 12.7 ± 2.48 µM
IC50 ([2]; Homo sapiens, MDA-MB-231, 48 h): ~13 µM
Structure (SMILES): CCCc1ccc(-c2nn(-c3ccccc3)cc2C=NNC(=O)c2cc3ccccc3[nH]2)cc1 [Compound 8b, N′-((1-phenyl-3-(4-propylphenyl)-1H-pyrazol-4-yl)methylene)-1H-indole-2-carbohydrazide]
cytochrome c level [3]: 0.675 ng/mL
IC50 [4]: 12.4 ± 0.5 µM
